Measurements reported in US8748569B2, “Peptide amphiphiles and methods to electrostatically control bioactivity of the ikvav peptide epitope” (Northwestern University, priority 2011, dated 2014).
Peptide text beside a SMILES is read from it. * marks the point of attachment. Palmitoyl = CCCCCCCCCCCCCCCC(=O)*

What was measured:
[1] = test system: P19 embryonal carcinoma cells differentiated into neurons; assay: Neurite outgrowth of neurons cultured in peptide amphiphile gels; format: cell-based, murine; conditions: compared to gels of PA 1; for promotion of neurite outgrowth (in words): gels containing 0.2 wt % of the PA with 0.8 wt % PA 1
Protocol: P19 embryonal carcinoma cells were cultured in media composed of α-MEM (Gibco), 7.5% newborn calf serum (Lonza), 2.5% fetal bovine serum (Gibco), penicillin (100 units/ml) and streptomycin (100 ug/ml) (Invitrogen). Neuronal differentiation was induced by plating P19 cells in non-treated Petri dishes in media containing 5 uM retinoic acid (Sigma) for 4 days. Neurospheres were collected from the Petri dish and allowed to settle in a centrifuge tube for 10 minutes. Media was removed, then trypsin/EDTA solution was added and the tube was gently agitated for 5 minutes. Cells were dissociated by triturating the neurospheres, then media was added to inactivate the trypsin. Cells were centrifuged and the pellet resuspended in media to a concentration of 25,000 cells/ul. Cells were mixed (1:4) with PA solution. The PA/cell solution was pipetted into coverslip-bottom culture dishes (MatTek) and covered with gelling solution (150 mM NaCl, 3 mM KCl, 25 mM CaCl2) for 1 minute to induce gelation, then rinsed with a 150 mM NaCl, 3 mM KCl solution, then media was added to the dish. Cells were cultured for 2 days.
In order to assay neurite outgrowth, gels were rinsed with PBS, then fixed in 4% paraformaldehyde for 30 minutes at room temperature. Gels were rinsed 3× with PBS followed by addition of 10% normal goat serum blocking solution (Invitrogen) with 0.1% Triton X-100 added. Gels were incubated overnight with primary antibody (rabbit anti-β-III-tubulin IgG, 1/2000, Covance) in blocking solution. Gels were rinsed 3× with PBS, then blocked for 30 minutes with blocking solution. Next, gels were incubated with secondary antibody (Alexa Fluor 488 goat anti-rabbit IgG, 1/100, Invitrogen) in blocking solution for 1 hour. After one PBS rinse, nuclei were stained with a 5 ug/ml solution of Hoecsht 34580 (Invitrogen) in PBS for 15 minutes, then rinsed 4 times. Gels were imaged on a Zeiss LSM 510 META laser scanning confocal microscope, individually acquiring z-stacks of randomly chosen cells with neurites. Two gels were imaged per condition for each experiment. Experiments were done in triplicate. For each condition, at least 50 neurons with neurites were imaged. Using the Simple Neurite Tracer plug-in for ImageJ software, neurites were traced and measured. A one-way ANOVA, followed by paired t-tests, were performed to determine significance between conditions. Researchers were blinded to the conditions during imaging and tracing.
Pluripotent murine P19 embryonal carcinoma cells were differentiated into neurons. These neurons were then homogeneously distributed into isotonic salt solutions composed of 0.8 wt % PA 1 mixed with 0.2 wt % 2-5 and gelled with 25 mM CaCl2 (FIG. 3a,b). Mixtures of 1 with 2-5 were used in biological experiments in order to form robust gel matrices capable of supporting cells in culture. After two days of culture, the cells were fixed and the neurites and nuclei were fluorescently labelled green and blue using β-III-tubulin immunostaining and Hoechst staining, respectively, then imaged by confocal microscopy (FIG. 14). Neurites were traced and measured, and average neurite lengths were calculated (FIG. 15).

[2] = Small-angle X-ray scattering (SAXS) of PA nanostructures; format: physicochemical; conditions: for Total SAXS Cross-section dimensions: diameter
From the text: Small-angle X-ray scattering (SAXS) measurements were obtained using a Rigaku S-MAX 3000 High Brilliance SAXS System. Cu Ka radiation was generated by Osmic MicroMaxs, an integrated microfocus sealed tube generator (powered at 45 kV and 0.9 mA) with Osmict Confocal Max-Fluxs optics, 3 pinholes collimation. A 20×20 cm^2 2D position-sensitive wire detector (1024×1024 pixels) was positioned 150 cm behind the examined samples, resulting in a q-range of 0.07-2.8 nm^−1. The wave vector defined as, q=(4π/λ)sin(2θ/2), where 2y is the scattering angle and λ is wavelength of Cu Kα radiation (1.542 Å). A total of 10^6 or more counts were collected in order to obtain a high signal to noise ratio. Samples were measured for 3600 s, and then background subtracted from data collected using a capillary containing the isotonic salt solution. The 2D SAXS patterns were azimuthally averaged and the background subtracted using standard methods. Data analysis was based on fitting the scattering curve to an appropriate model by a least-squares method using software provided by NIST (NIST SANS analysis version 7.0 on IGOR) ^21 The table below lists the models used to fit the SAXS curves. The Total SAXS cross-sectional dimensions correspond to length and width for molecule 2, and diameter for 3-5.

[3] = Transmission electron microscopy (cryoTEM / conventional TEM) of PA nanostructures; format: physicochemical
Protocol: The nanostructure of each PA molecule under physiologically relevant conditions was investigated using electron microscopy. Samples for vitreous ice cryo-transmission electron microscopy (cryoTEM) were prepared from a 0.1-0.5 wt % PA solution dissolved in 150 mM NaCl, 3 mM KCl, or in a 150 mM NaCl, 3 mM KCl, and 5 mM CaCl2 solution, both at a pH of 7.2-7.4. The solutions were then heated to 80° C. in a water bath for 1 hr, and then slowly cooled to room temperature over the course of 8 hr. 10 μL of each solution was pipetted onto a plasma cleaned holey carbon TEM grid (Electron Microscopy Sciences), blotted and plunged into liquid ethane using a FEI Vitrobot Mark IV. Samples were kept at −180° C. and imaged using a JEOL 1230 TEM operating at 100 kV.
Samples for conventional TEM microscopy were prepared from 0.1 wt % PA solution dissolved in ultrapure water and adjusted to a pH of 7.2-7.4 by adding NaOH. The solutions were then heated to 80° C. in a water bath for 1 hr, and then slowly cooled to room temperature over the course of 8 hr, unless noted otherwise. 2 μL of a 0.1 wt % PA solution was pipetted onto a Carbon Formvar grid (Electron Microscopy Sciences) and allowed to dry. The samples were then negatively stained by pipetting 2 uL of a 2 wt % Uranyl acetate solution and allowed to dry. Each sample was imaged using a JEOL 1230 TEM operating at 100 kV. The average diameter of nanofibers was obtained via measuring 40-100 different fibers from solutions and grids prepared throughout multiple days.
The assembly of each PA molecule under physiologically relevant conditions was examined using cryogenic electron microscopy (cryoTEM), as described in Example 4. PAs were dissolved in isotonic salt solutions resembling extracellular fluid (150 mM NaCl, 3 mM KCl, pH 7.4). […] In order to compare molecular simulation diameters with those observed from TEM, molecular simulation values for the other four PA molecules were scaled by the same amount, 87%.

[4] = Solubility in physiologically relevant monovalent salt solution; format: physicochemical; conditions: monovalent salt solution composed of 150 mM NaCl and 3 mM KCl
Dynamic light scattering = format: physicochemical
Circular dichroism (CD) = format: physicochemical
Protocol: CD was done using a model J-715 Jasco Circular Dichroism Spectrometer. 1 wt % PA solutions were prepared in either a 150 mM NaCl, 3 mM KCl solution or a 150 mM NaCl, 3 mM KCl, and 5 mM CaCl2 solution, both at a pH of 7.2-7.4, as determined via pH paper. The solutions were then heated to 80° C. in a water bath for 1 hr, and then slowly cooled to room temperature over the course of 8 hr. The samples were measured through 0.01 mm quartz plates. Each trace represents the average of three scans. The mean residue ellipticity was corrected for purity of the lyophilized powder from peptide content analysis.

[5] = test system: P19 embryonal carcinoma cells differentiated into neurons; assay: Neurite outgrowth of neurons cultured in peptide amphiphile gels; format: cell-based, murine; conditions: gels containing half the concentration (0.1 wt %) of the PA; compared to gels of PA 1
[6] = Transmission electron microscopy (cryoTEM / conventional TEM) of PA nanostructures; format: physicochemical; conditions: 1 wt % solution drop-cast and dried onto a TEM grid
[7] = (Core) Shell Cylinder SAXS model

Core Diameter [2, 7]: 1.2 nm
Shell Thickness [2, 7]: 2.0 ± 0.6 nm
Total SAXS Cross-section dimensions [2, 7]: 6.4 ± 1.8 nm
Core Diameter ([2]; (Core) Shell Sphere SAXS model): 1.46 nm
Shell Thickness ([2]; (Core) Shell Sphere SAXS model): 1.4 ± 0.6 nm
Total SAXS Cross-section dimensions ([2]; (Core) Shell Sphere SAXS model): 5.9±1.2 nm
Total SAXS Cross-section dimensions ([2]; (Core) Shell Sphere SAXS model, listed as 5): 5.9±1.2 nm
diameter of cylindrical structures ([3]; cryoTEM, isotonic salt solution with 5 mM CaCl2 added): 9.9±1.1 nm
diameter of spherical micelles ([3]; cryoTEM, without CaCl2): 5.3±1.1 nm
OBSERVED FIBER DIAMETER ([3]; from TEM): 108 ± 15 Å
ASSEMBLED MORPHOLOGY ([3]; observed morphologies from TEM): Cylindrical fiber
solubility [4]: soluble
hydrodynamic radius of spherical micelles (Dynamic light scattering): 8.6 nm
peptide secondary structure from CD spectrum (Circular dichroism (CD); 150 mM NaCl, 3 mM KCl with 5 mM CaCl2 added): presence of β-sheet structure
peptide secondary structure from CD spectrum (Circular dichroism (CD); 1 wt % in 150 mM NaCl, 3 mM KCl): random coil peptide structure
average diameter of cylindrical nanofibers [6]: 10.8±1.5 nm
Compound: CCCCCCCCCCCCCCCC(=O)N[C@H](C(=O)N[C@H](C(=O)N[C@@H](C)C(=O)N[C@@H](C)C(=O)N[C@@H](CCC(=O)O)C(=O)N[C@@H](CCC(=O)O)C(=O)N[C@@H](CCC(=O)O)C(=O)N[C@@H](CCC(=O)O)C(=O)NCC(=O)N[C@H](C(=O)N[C@@H](CCCCN)C(=O)N[C@H](C(=O)N[C@@H](C)C(=O)N[C@H](C(=O)O)C(C)C)C(C)C)[C@@H](C)CC)C(C)C)C(C)C [PA 5, CH3(CH2)14C(O)-VVAAEEEEGIKVAV-OH] (Palmitoyl-VVAAEEEEGIKVAV-OH)
promotion of neurite outgrowth (in words) [1]: promoted neurite outgrowth
promotion of neurite outgrowth (in words) ([1]; listed as SEQ ID NO. 7): promote neurite outgrowth
increase in neurite outgrowth ([1]; gels of 0.8 wt % PA 1 mixed with 0.2 wt % of the PA, gelled with 25 mM CaCl2, 2 days culture): 88±13%
increase in neurite length [5]: 57±14%
